From US20170020838A1, “TREATMENT FOR RESPIRATORY DISEASE” (MUCOKINETICA LIMITED, priority 2014, published 2017)

Key:
[1] = test system: ENaC; conditions: human airway epithelial cells; Rasgado et al. 2009 & 2013; cited from earlier work
[2] = test system: kidney sodium channel; conditions: cortical collecting duct of the rabbit kidney; Muto et al. 1993; cited from earlier work
[3] = test system: ciliary transport of pig airway mucus secretions on the ex vivo trachea of transgenic CF piglets; assay: Ciliary transport of mucus secretions on ex vivo trachea of transgenic CF piglets; parameters: speed of ciliary transport at the first three time points (25, 40 and 55 min), day 1: dose or concentration left out as unconfirmed
Protocol: FIG. 13 Study of the effects of 6-amidino-2-napthyl 4-guanidinobenzoate in BSS, and a combination of hyperosmotic saline and 6-amidino-2-napthyl 4-guanidinobenzoate in BSS on ciliary transport of pig airway mucus secretions on the ex vivo trachea of transgenic CF piglets. Transgenic CF piglets were produced as described by Klymiuk et al. 2012, and tracheas obtained at a Veterinary University. Study methods were otherwise as described in FIG. 10. Ciliary transport index (mean) was measured over two days with a second treatment period at the start of the second day.
Pig tracheas (from larynx to carina) from normal wild type animals were obtained from a local abattoir or Veterinary University. Transgenic CF piglets were produced as described by Klymiuk et al. 2012, and tracheas were obtained at a Veterinary University. The lumen of each trachea was cleaned by gentle irrigation with BSS. Tracheas were opened longitudinally with scissors along the posterior aspect and mounted with the posterior aspect upwards in a moist air-tight box. An aliquot of pig airway mucus approximately 3 mm diameter was placed on the mucosal surface close to the distal end of each trachea. Tracheal mucus velocity (TMV mm/min) was measured by recording the distance moved, towards the laryngeal end of the trachea, in a given time. At the start of a study three measurements of TMV were made for each trachea to establish a baseline rate for the trachea. Solutions were then pipetted onto the luminal mucosal surface of tracheas for 10 min. Then excess solution was tipped off the mucosal surface and measurement of TMV repeated. TMV results at each time point are expressed as % of the baseline TMV, ciliary transport index (mean±SD).

SMILES | effect of hyperosmotic concentrations on ENaC activity [1] | action on the kidney sodium channel [2] | speed of ciliary transport at the first three time points (25, 40 and 55 min), day 1 ([3]; in BSS, 10 min) | speed of ciliary transport at the first time point (25 min), day 2 ([3]; second 10 min treatment with 10^−5 M at 14 h 10 min) | onset and duration profile of increased ciliary transport, both days ([3]; transgenic CF pig tracheas)
OC[C@@H](O)[C@@H](O)[C@H](O)[C@H](O)CO [hyperosmotic mannitol, mannitol] | reduced ENaC activity | – | – | – | –
N=C(N)Nc1ccc(C(=O)Oc2ccc3cc(C(=N)N)ccc3c2)cc1 [6-amidino-2-napthyl 4-guanidinobenzoate] | – | weak, short acting inhibitor | no increase in speed | No increase in speed | slow-onset long duration
